In ChEMBL document CHEMBL3044682, “QSAR modeling of bifunctional quinolonyl diketo acid derivatives as integrase inhibitors” (Med Chem Res, 2012):

target: Human immunodeficiency virus type 1 integrase (Human immunodeficiency virus 1, UniProt Q7ZJM1); assay: Inhibition of Human immunodeficiency virus 1 integrase strand transfer activity
Sequence (Q7ZJM1 whole entry): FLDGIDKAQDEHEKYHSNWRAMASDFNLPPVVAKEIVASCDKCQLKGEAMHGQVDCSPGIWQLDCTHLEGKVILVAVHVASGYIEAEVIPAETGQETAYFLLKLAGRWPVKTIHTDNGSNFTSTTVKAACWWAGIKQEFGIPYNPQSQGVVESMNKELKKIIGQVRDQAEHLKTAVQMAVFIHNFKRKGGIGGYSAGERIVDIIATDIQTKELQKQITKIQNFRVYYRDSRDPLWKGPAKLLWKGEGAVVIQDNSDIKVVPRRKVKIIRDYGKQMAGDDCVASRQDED

IC50 | SMILES
12 nM | O=C(O)/C(O)=C/C(=O)c1ccc2c(c1)c(=O)c(C(=O)/C=C(\O)C(=O)O)cn2-c1ccccc1
60.6 nM | Cc1cccc(/C=C/c2ccc3ccc(C(=O)O)c(O)c3n2)c1C
1090 nM | O=C(O)/C(O)=C/C(=O)c1ccc2c(c1)c(=O)c(C(=O)O)cn2Cc1ccc(F)cc1 [13, RDS-1607]
31.3 nM | O=C(O)/C(O)=C/C(=O)c1cn(Cc2cccc(F)c2)c2ccccc2c1=O
430 nM | O=C(O)/C(O)=C/C(=O)c1ccc2[nH]cc(C(=O)/C=C(\O)C(=O)O)c(=O)c2c1
326 nM | CCOC(=O)/C(O)=C/C(=O)c1cn(Cc2cccc(F)c2)c2ccccc2c1=O [RDS-1624]
7.2 nM | CC[C@@H](CO)n1cc(CO)c(=O)c2cc(Cc3ccccc3F)c(OC)cc21
